Measured values reported in ChEMBL document CHEMBL5380795, “Design, Synthesis, and Bioactivity Investigation of Cyclic Lipopeptide Antibiotics Containing Eight to Nine Amino Acids” (J Med Chem, 2023).
In brackets after ≈: the same amount, converted by molar mass.

Legend:
Pseudomonas aeruginosa [1] = assay: Antibacterial activity against carbapenem resistant Pseudomonas aeruginosa clinical isolate 19-3 assessed as inhibition of bacterial growth incubated for 18 to 24 hrs by broth microdilution method; assay type: functional; details: time 18-24 hrs
Acinetobacter baumannii [2] = assay: Antibacterial activity against carbapenem resistant Acinetobacter baumannii clinical isolate 19-8 assessed as inhibition of bacterial growth incubated for 18 to 24 hrs by broth microdilution method; assay type: functional; details: time 18-24 hrs
Pseudomonas aeruginosa [3] = assay: Antibacterial activity against Pseudomonas aeruginosa clinical isolate 19-1 assessed as inhibition of bacterial growth incubated for 18 to 24 hrs by broth microdilution method; assay type: functional; details: time 18-24 hrs
Klebsiella pneumoniae [4] = assay: Antibacterial activity against carbapenem resistant Klebsiella pneumoniae clinical isolate 19-15 assessed as inhibition of bacterial growth incubated for 18 to 24 hrs by broth microdilution method; assay type: functional; details: time 18-24 hrs
[5] = Cytotoxicity against human HK-2 cells assessed as inhibition of cell growth incubated for 72 hrs by CCK-8 assay; assay type: toxicity, cell-based
[6] = Selectivity index, ratio of IC50 for cytotoxicity against human HK-2 cells to MIC for antibacterial activity against Escherichia coli ATCC BAA-2523; assay type: toxicity, cell-based
Klebsiella pneumoniae [7] = assay: Antibacterial activity against carbapenem resistant Klebsiella pneumoniae clinical isolate 19-17 assessed as inhibition of bacterial growth incubated for 18 to 24 hrs by broth microdilution method; assay type: functional; details: time 18-24 hrs
Escherichia coli [8] = assay: Antibacterial activity against Escherichia coli NCTC 13353 assessed as inhibition of bacterial growth incubated for 18 to 24 hrs by broth microdilution method; assay type: functional; details: time 18-24 hrs
Escherichia coli [9] = assay: Antibacterial activity against KPC producing Escherichia coli ATCC BAA-2340 assessed as inhibition of bacterial growth incubated for 18 to 24 hrs by broth microdilution method; assay type: functional; details: time 18-24 hrs
Pseudomonas aeruginosa [10] = assay: Antibacterial activity against carbapenem resistant Pseudomonas aeruginosa clinical isolate 17-1 assessed as inhibition of bacterial growth incubated for 18 to 24 hrs by broth microdilution method; assay type: functional; details: time 18-24 hrs
Acinetobacter baumannii [11] = assay: Antibacterial activity against oxacillinase-27 producing Acinetobacter baumannii NCTC 13304 assessed as inhibition of bacterial growth incubated for 18 to 24 hrs by broth microdilution method; assay type: functional; details: time 18-24 hrs
Escherichia coli [12] = assay: Antibacterial activity against Escherichia coli ATCC BAA-2523 assessed as inhibition of bacterial growth incubated for 18 to 24 hrs by broth microdilution method; assay type: functional; details: time 18-24 hrs
Staphylococcus aureus [13] = assay: Antibacterial activity against methicillin resistant Staphylococcus aureus ATCC 33591 assessed as inhibition of bacterial growth incubated for 18 to 24 hrs by broth microdilution method; assay type: functional; details: time 18-24 hrs
[14] = test system: Staphylococcus epidermidis; assay: Antibacterial activity against methicillin resistant Staphylococcus epidermidis clinical isolate 19-5 assessed as inhibition of bacterial growth incubated for 18 to 24 hrs by broth microdilution method; assay type: functional; details: time 18-24 hrs
Escherichia coli [15] = assay: Antibacterial activity against Escherichia coli clinical isolate 19-2 assessed as inhibition of bacterial growth incubated for 18 to 24 hrs by broth microdilution method; assay type: functional; details: time 18-24 hrs
[16] = test system: Staphylococcus epidermidis; assay: Antibacterial activity against methicillin resistant Staphylococcus epidermidis clinical isolate 19-6 assessed as inhibition of bacterial growth incubated for 18 to 24 hrs by broth microdilution method; assay type: functional; details: time 18-24 hrs
Staphylococcus aureus [17] = assay: Antibacterial activity against Staphylococcus aureus ATCC 29213 assessed as inhibition of bacterial growth incubated for 18 to 24 hrs by broth microdilution method; assay type: functional; details: time 18-24 hrs
Klebsiella pneumoniae [18] = assay: Antibacterial activity against KPC producing Klebsiella pneumoniae ATCC BAA-1705 assessed as inhibition of bacterial growth incubated for 18 to 24 hrs by broth microdilution method; assay type: functional; details: time 18-24 hrs
Pseudomonas aeruginosa [19] = assay: Antibacterial activity against Pseudomonas aeruginosa ATCC 27853 assessed as inhibition of bacterial growth incubated for 18 to 24 hrs by broth microdilution method; assay type: functional; details: time 18-24 hrs

Row | SMILES | MIC (Pseudomonas aeruginosa [1]) [µg/mL] | MIC (Acinetobacter baumannii [2]) [µg/mL] | MIC (Pseudomonas aeruginosa [3]) [µg/mL] | MIC (Klebsiella pneumoniae [4]) [µg/mL] | IC50 at 72 h [5] [µg/mL] | selectivity ratio [6] | MIC (Klebsiella pneumoniae [7]) [µg/mL] | MIC (Escherichia coli [8]) [µg/mL] | MIC (Escherichia coli [9]) [µg/mL] | MIC (Pseudomonas aeruginosa [10]) [µg/mL] | MIC (Acinetobacter baumannii [11]) [µg/mL] | MIC (Escherichia coli [12]) [µg/mL] | MIC (Staphylococcus aureus [13]) [µg/mL] | MIC [14] [µg/mL] | MIC (Escherichia coli [15]) [µg/mL] | MIC [16] [µg/mL] | MIC (Staphylococcus aureus [17]) [µg/mL] | MIC (Klebsiella pneumoniae [18]) [µg/mL] | MIC (Pseudomonas aeruginosa [19]) [µg/mL]
1 | CCCCCCCCCC(=O)N[C@H](CCN)C(=O)N[C@H]1CCNC(=O)[C@H]([C@@H](C)O)NC(=O)[C@H](CCN)NC(=O)[C@H](CCN)NC(=O)[C@H](CC(C)C)NC(=O)[C@@H](Cc2ccc(C)cc2)NC(=O)[C@H](CCN)NC1=O | 1 (≈ 0.971 µM) | 32 (≈ 31.1 µM) | 1 (≈ 0.971 µM) | 4 (≈ 3.88 µM) | 71.6 (≈ 69.5 µM) | 71.6 | 4 (≈ 3.88 µM) | 8 (≈ 7.76 µM) | 1 (≈ 0.971 µM) | 32 (≈ 31.1 µM) | 16 (≈ 15.5 µM) | 1 (≈ 0.971 µM) | > 64 | 2 (≈ 1.94 µM) | 2 (≈ 1.94 µM) | 2 (≈ 1.94 µM) | 32 (≈ 31.1 µM) | 2 (≈ 1.94 µM) | 32 (≈ 31.1 µM)
2 | CCCCCCCCCC(=O)N[C@H](CCN)C(=O)N[C@H]1CCNC(=O)[C@H]([C@@H](C)O)NC(=O)[C@H](CCN)NC(=O)[C@H](CCN)NC(=O)[C@H](CC(C)C)NC(=O)[C@@H](Cc2ccc(Cl)c(Cl)c2)NC(=O)[C@H](CCN)NC1=O | 4 (≈ 3.69 µM) | 16 (≈ 14.7 µM) | 4 (≈ 3.69 µM) | 4 (≈ 3.69 µM) | 28.5 (≈ 26.3 µM) | 14.3 | 4 (≈ 3.69 µM) | 4 (≈ 3.69 µM) | 2 (≈ 1.84 µM) | 16 (≈ 14.7 µM) | 16 (≈ 14.7 µM) | 2 (≈ 1.84 µM) | 32 (≈ 29.5 µM) | 4 (≈ 3.69 µM) | 2 (≈ 1.84 µM) | 4 (≈ 3.69 µM) | 16 (≈ 14.7 µM) | 4 (≈ 3.69 µM) | 16 (≈ 14.7 µM)
3 | CCCCCCC[C@@H](O)CC(=O)N[C@@H](CCN)C(=O)N[C@H](CCN)C(=O)N[C@H]1CCNC(=O)[C@H](CC(C)C)NC(=O)[C@H](CCN)NC(=O)[C@H](CCN)NC(=O)[C@H](Cc2ccccc2)NC(=O)[C@@H](CC(C)C)NC(=O)[C@H](CCN)NC1=O | 4 (≈ 3.5 µM) | 16 (≈ 14 µM) | 2 (≈ 1.75 µM) | 32 (≈ 28 µM) | 18.5 (≈ 16.2 µM) | 2.3 | 64 (≈ 55.9 µM) | 32 (≈ 28 µM) | 16 (≈ 14 µM) | 2 (≈ 1.75 µM) | 16 (≈ 14 µM) | 8 (≈ 6.99 µM) | 16 (≈ 14 µM) | 1 (≈ 0.874 µM) | 16 (≈ 14 µM) | 4 (≈ 3.5 µM) | 8 (≈ 6.99 µM) | 32 (≈ 28 µM) | 2 (≈ 1.75 µM)
4 | CC(C)C[C@@H]1NC(=O)[C@@H](CC(C)C)NC(=O)[C@H](CCN)NC(=O)[C@@H](NC(=O)[C@@H](CCN)NC(=O)CCCCCc2ccccc2)CCNC(=O)[C@H]([C@@H](C)O)NC(=O)[C@H](CCN)NC(=O)[C@H](CCN)NC1=O | 4 (≈ 3.99 µM) | > 64 | 2 (≈ 2 µM) | > 64 | 309 (≈ 309 µM) | 19.3 | > 64 | 32 (≈ 31.9 µM) | 8 (≈ 7.98 µM) | 4 (≈ 3.99 µM) | > 64 | 16 (≈ 16 µM) | > 64 | 8 (≈ 7.98 µM) | 16 (≈ 16 µM) | 64 (≈ 63.9 µM) | > 64 | 8 (≈ 7.98 µM) | 1 (≈ 0.998 µM)
5 | CCCCCCC[C@@H](O)CC(=O)N[C@H](CCN)C(=O)N[C@H]1CCNC(=O)[C@H]([C@@H](C)O)NC(=O)[C@H](CCN)NC(=O)[C@H](CCN)NC(=O)[C@H]([C@@H](C)O)NC(=O)[C@@H](CC(C)C)NC(=O)[C@H](CCN)NC1=O | 0.5 (≈ 0.507 µM) | > 64 | 0.5 (≈ 0.507 µM) | 16 (≈ 16.2 µM) | 411 (≈ 417 µM) | 205 | 64 (≈ 64.9 µM) | 16 (≈ 16.2 µM) | 4 (≈ 4.06 µM) | 0.5 (≈ 0.507 µM) | > 64 | 2 (≈ 2.03 µM) | > 64 | > 64 | 16 (≈ 16.2 µM) | > 64 | > 64 | 4 (≈ 4.06 µM) | 0.25 (≈ 0.253 µM)
